Among the test systems are A498 renal; A549 NSCLC; COLO 205 colon; K-562 leukemia; NCI-H226 lung; RPMI-8226 leukemia; SK-MEL-28 melanoma; SR leukemia; T-47D breast; U251 CNS.
Holding throughout (experiment): NCI tumour cell line growth inhibition, 48 h

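Results reflect a 48-hour exposure of cells in 96-well plates to compound at five concentrations. At the GI50, growth is halved. TGI marks complete inhibition of growth.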

Turning to `Cc1cc(NC(=O)CCc2ccc(N3C(N)=NC(N)=NC3(C)C)cc2)ccc1S(=O)(=O)F`, the GI50 was > 23.7 µM in the assay with A498 renal; 0.151 µM with A549 NSCLC; 0.358 µM in the assay on COLO 205 colon; 0.737 µM in the assay on K-562 leukemia; 18.4 µM in the assay on NCI-H226 lung; 0.464 µM in the assay on RPMI-8226 leukemia. Also, the GI50 in the assay on SK-MEL-28 melanoma is > 32.6 µM; in the assay on SR leukemia, > 100 µM; in the assay on T-47D breast, 10.6 µM; in the assay with U251 CNS it was 0.148 µM. The TGI in the assay with A498 renal, in the assay on A549 NSCLC, in the assay on COLO 205 colon, in the assay on K-562 leukemia, in the assay on NCI-H226 lung and in the assay with RPMI-8226 leukemia was > 100 µM each time. The TGI in the assay on SK-MEL-28 melanoma, in the assay with SR leukemia, in the assay on T-47D breast and with U251 CNS was > 100 µM throughout.

Consider `C[C@]12CC[C@@H]3c4ccc(O)cc4CC[C@H]3[C@@H]1CC[C@@H]2NS(=O)(=O)c1cccc(Br)c1`, for which the GI50 was 1.8 µM in the assay with A498 renal; 3.11 µM with A549 NSCLC; 1.89 µM with COLO 205 colon; 3.59 µM in the assay with K-562 leukemia; 3.19 µM with NCI-H226 lung; 3.41 µM in the assay on RPMI-8226 leukemia. For the same compound, the GI50 in the assay on SK-MEL-28 melanoma was 4.21 µM; in the assay on SR leukemia, 2.37 µM; in the assay on T-47D breast, 5.05 µM; in the assay on U251 CNS, 3.23 µM. Further, the TGI is 8.45 µM in the assay with A498 renal; 13.1 µM with A549 NSCLC; 3.38 µM with COLO 205 colon; 14.8 µM with K-562 leukemia; 15.6 µM in the assay with NCI-H226 lung; 17.3 µM in the assay on RPMI-8226 leukemia. In addition, the TGI is 15.9 µM with SK-MEL-28 melanoma, 7.63 µM with SR leukemia, 17.6 µM with T-47D breast and 11 µM in the assay on U251 CNS.

The values above are taken from PubChem BioAssay (NCI).
